The nature of data set [1]: Temperature sensitivity of in vitro T1 relaxivity (r1), 0.47 T. The format is physicochemical. The text has this: FIG. 1 of the accompanying drawings and Table 5 below show the temperature sensitivity of in vitro T1 relaxivity (r1) for liposome encapsulated GdDTPA-BMA and GdHPDO3A, respectively (0.47T).
The conditions of data set [2]: cited from earlier work.
For data set [3] the following is noted: phosphatidylcholines; cited from earlier work.

As for `CC(O)CN1CCN(CC(=O)[O-])CCN(CC(=O)[O-])CCN(CC(=O)[O-])CC1.[Gd+3]` (stereo not shown) [Control, GdHPDO3A], the r1 in data set [1] (20 °C) was found to be 4.53 s⁻¹ mM⁻¹; in data set [1] (25 °C), 4.27 s⁻¹ mM⁻¹; in data set [1] (30 °C), 3.94 s⁻¹ mM⁻¹; in data set [1] (37 °C), 3.75 s⁻¹ mM⁻¹; in data set [1] (45 °C) it was 3.07 s⁻¹ mM⁻¹; in data set [1] (55 °C), 2.82 s⁻¹ mM⁻¹. Further, in data set [1] (60 °C), the r1 stood at 2.54 s⁻¹ mM⁻¹.

A word on the pKa: it is the negative logarithm of the acid dissociation constant. Turning to `CCCCCCCCCCCCOC(=O)C(C)n1ccnc1` (stereo not shown) [DIP], the pKa in data set [2] is 6.8. For the same molecule, in data set [2] (lysosomal pH (5.2)), the charged form entry is recorded as “over 97%”. The “non-ionized (non/low surfactant activity) form” value in data set [2] (pH 7.3-7.4 (physiological)) is listed as 80%.

On to `CCCCCCCCCCCCC(=O)OC[C@H](COP(=O)([O-])OCC[N+](C)(C)C)OC(=O)CCCCCCCCCCCC` [PC 13:0], for which the “Transition temperature Tc” value in data set [3] was 14 °C.

For `CCCCCCCCCCCCCCCC(=O)O[C@H](COC(=O)CCCCCCCCCCCCC)COP(=O)([O-])OCC[N+](C)(C)C` [PC 14:0-16:0], the “Transition temperature Tc” value in data set [3] is 35 °C.

Regarding `CCCCCCCCCCCCCCCCCC(=O)O[C@H](COC(=O)CCCCCCCCCCCCC)COP(=O)([O-])OCC[N+](C)(C)C` [PC 14:0-18:0], the “Transition temperature Tc” value in data set [3] was 40 °C.

Regarding `CCCCCCCCCCCCCCC(=O)OC[C@H](COP(=O)([O-])OCC[N+](C)(C)C)OC(=O)CCCCCCCCCCCCCC` [PC 15:0], the “Transition temperature Tc” value in data set [3] is 33 °C.

Regarding `CCCCCCCCCCCCCCCCCC(=O)O[C@H](COC(=O)CCCCCCCCCCCCCCC)COP(=O)([O-])OCC[N+](C)(C)C` [PC 16:0-18:0], in data set [3], the “Transition temperature Tc” value is 49 °C.

Take `CCCCCCCCCCCCCCCCC(=O)OC[C@H](COP(=O)([O-])OCC[N+](C)(C)C)OC(=O)CCCCCCCCCCCCCCCC` [PC 17:0]: in data set [3], the “Transition temperature Tc” value is 48 °C.

In the case of `CCCCCCCCCCCCCCCCCC(=O)OC[C@H](COP(=O)([O-])OCC[N+](C)(C)C)OC(=O)CCCCCCCCCCCCCCC` [PC 18:0-16:0], the “Transition temperature Tc” value in data set [3] was 44 °C.

Turning to `CCCCCCCCCCC/C=C\CCCCC(=O)OC[C@H](COP(=O)([O-])OCC[N+](C)(C)C)OC(=O)CCCC/C=C\CCCCCCCCCCC` [PC 18:1c6], in data set [3], the “Transition temperature Tc” value is 1 °C.

For `CCCCCCCC/C=C\CCCCCCCC(=O)OC[C@H](COP(=O)([O-])OCC[N+](C)(C)C)OC(=O)CCCCCCC/C=C\CCCCCCCC` [PC 18:1c9], in data set [3], the “Transition temperature Tc” value is −20 °C.

For the molecule `CCCCCCCC/C=C/CCCCCCCC(=O)OC[C@H](COP(=O)([O-])OCC[N+](C)(C)C)OC(=O)CCCCCCC/C=C/CCCCCCCC` [PC 18:1t9], the “Transition temperature Tc” value in data set [3] was 12 °C.

Regarding `CCCCCCCCCCCCCCCCCCCC(=O)OC[C@H](COP(=O)([O-])OCC[N+](C)(C)C)OC(=O)CCCCCCCCCCCCCCCCCCC` [PC 20:0], the “Transition temperature Tc” value in data set [3] is 66 °C.

For the molecule `CCCCCCCCCCCCCCCCCCCCC(=O)OC[C@H](COP(=O)([O-])OCC[N+](C)(C)C)OC(=O)CCCCCCCCCCCCCCCCCCCC` [PC 21:0], the “Transition temperature Tc” value in data set [3] was 72 °C.

Turning to `CCCCCCCCCCCCCCCCCCCCCC(=O)OCC(COP(=O)([O-])OCC[N+](C)(C)C)OC(=O)CCCCCCCCCCCCCCCCCCCCC` (stereo not shown) [PC 22:0, Dibehenoyl-PC], the “Transition temperature Tc” value in data set [3] is 75 °C.

On to `CCCCCCCCCCCCCCCCCCCCCCC(=O)OC[C@H](COP(=O)([O-])OCC[N+](C)(C)C)OC(=O)CCCCCCCCCCCCCCCCCCCCCC` [PC 23:0], for which, in data set [3], the “Transition temperature Tc” value is 79 °C.

Regarding `CCCCCCCCCCCCCCCCCCCCCCCC(=O)OC[C@H](COP(=O)([O-])OCC[N+](C)(C)C)OC(=O)CCCCCCCCCCCCCCCCCCCCCCC` [PC 24:0], the “Transition temperature Tc” value in data set [3] was 80 °C.

The values above are taken from US20090191131A1, “USE OF PARTICULATE CONTRAST AGENTS IN DIAGNOSTIC IMAGING FOR STUDYING PHYSIOLOGICAL PARAMATERS” (priority 1998, published 2009).
